Reference: US11739070B2, “C5A receptor modulators” (IDORSIA PHARMACEUTICALS LTD, priority 2018, dated 2023)

Target: T1, C5AR1 (Homo sapiens, UniProt P21730)
T1 construct: host or cells: CHO-K1
T1 sequence (P21730 1-350): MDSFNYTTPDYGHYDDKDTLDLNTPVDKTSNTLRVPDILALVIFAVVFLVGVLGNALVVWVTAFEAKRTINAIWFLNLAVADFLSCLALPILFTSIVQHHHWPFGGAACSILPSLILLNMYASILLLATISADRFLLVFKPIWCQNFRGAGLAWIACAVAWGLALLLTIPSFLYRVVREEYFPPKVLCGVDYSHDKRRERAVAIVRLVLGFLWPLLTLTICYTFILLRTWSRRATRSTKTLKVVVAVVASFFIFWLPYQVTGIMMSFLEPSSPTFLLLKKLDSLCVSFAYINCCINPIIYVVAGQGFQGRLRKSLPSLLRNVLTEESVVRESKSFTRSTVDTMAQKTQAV
Assay: hC5a DISCO IC50 assay (PathHunter beta-arrestin, antagonist mode)
Type: cell-based
Details: CHO-K1 C5AR1 beta-arrestin cell line; antagonist vs 1-10 nM C5a agonist; geometric mean values; read-out: C5aR IC50
Procedure, shortened: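 Antagonist added first, then 1-10 nM C5a agonist; cells incubated 1.5 h at 37 °C. Beta-arrestin signal developed with PathHunter detection reagent, 45 min at RT. IC50 in nmol/l from serial antagonist dilutions, reported as geometric mean of several measurements.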

SMILES | IC50 [nM]
Cc1cccc(F)c1N1CCC(n2c(=O)n(Cc3ccccc3C(F)(F)F)c3c(C)cccc32)CC1 [Example 245, 1-[1-(2-Fluoro-6-methyl-phenyl)-piperidin-4-yl]-4-methyl-3-(2-trifluoromethyl-benzyl)-1,3-dihydro-benzoimidazol-2-one] | 111
COc1cccc2c1n(Cc1ccccc1C(F)(F)F)c(=O)n2C1CCN(c2c(C)ccnc2C#N)CC1 [Example 246, 4-[4-Methoxy-2-oxo-3-(2-trifluoromethyl-benzyl)-2,3-dihydro-benzoimidazol-1-yl]-4′-methyl-3,4,5,6-tetrahydro-2H-[1,3′]bipyridinyl-2′-carbonitrile] | 39
COc1ccnc(C)c1N1CCC(n2c(=O)n(Cc3ccccc3C(F)(F)F)c3c(OC)cccc32)CC1 [Example 247, 4-Methoxy-1-(4′-methoxy-2′-methyl-3,4,5,6-tetrahydro-2H-[1,3′]bipyridinyl-4-yl)-3-(2-trifluoromethyl-benzyl)-1,3-dihydro-benzoimidazol-2-one] | 563
COc1ccnc(OC)c1N1CCC(n2c(=O)n(Cc3ccccc3C(F)(F)F)c3c(OC)cccc32)CC1 [Example 248, 1-(2′,4′-Dimethoxy-3,4,5,6-tetrahydro-2H-[1,3′]bipyridinyl-4-yl)-4-methoxy-3-(2-trifluoromethyl-benzyl)-1,3-dihydro-benzoimidazol-2-one] | 182
COc1ncnc(C)c1N1CCC(n2c(=O)n(Cc3ccccc3C(F)(F)F)c3c(OC)cccc32)CC1 [Example 249, 4-Methoxy-1-[1-(4-methoxy-6-methyl-pyrimidin-5-yl)-piperidin-4-yl]-3-(2-trifluoromethyl-benzyl)-1,3-dihydro-benzoimidazol-2-one] | 273
COc1ncnc(OC)c1N1CCC(n2c(=O)n(Cc3ccccc3C(F)(F)F)c3c(OC)cccc32)CC1 [Example 250, 1-[1-(4,6-Dimethoxy-pyrimidin-5-yl)-piperidin-4-yl]-4-methoxy-3-(2-trifluoromethyl-benzyl)-1,3-dihydro-benzoimidazol-2-one] | 853
